# Publication PMC9184693, “Molecular mechanism of interaction between fatty acid delta 6 desaturase and acyl-CoA by computational prediction” (AMB Express, 2022)
# Biological target: T1, MpFADS6 (Micromonas pusilla delta 6 desaturase) (Micromonas pusilla, UniProt C1MMV2)
# T1 construct: gene MICPUCDRAFT_32578; pYES2-MpFADS6 expressed in Saccharomyces cerevisiae INVSc1; membrane protein, whole-cell biotransformation
# Assay: whole-cell biotransformation in yeast, GC-MS of fatty acid methyl esters
# Type: cell-based
# Conditions: product from 0.25 mM ALA fed to cells; formed as the acyl-CoA
# T1 sequence (C1MMV2 entry or part of it): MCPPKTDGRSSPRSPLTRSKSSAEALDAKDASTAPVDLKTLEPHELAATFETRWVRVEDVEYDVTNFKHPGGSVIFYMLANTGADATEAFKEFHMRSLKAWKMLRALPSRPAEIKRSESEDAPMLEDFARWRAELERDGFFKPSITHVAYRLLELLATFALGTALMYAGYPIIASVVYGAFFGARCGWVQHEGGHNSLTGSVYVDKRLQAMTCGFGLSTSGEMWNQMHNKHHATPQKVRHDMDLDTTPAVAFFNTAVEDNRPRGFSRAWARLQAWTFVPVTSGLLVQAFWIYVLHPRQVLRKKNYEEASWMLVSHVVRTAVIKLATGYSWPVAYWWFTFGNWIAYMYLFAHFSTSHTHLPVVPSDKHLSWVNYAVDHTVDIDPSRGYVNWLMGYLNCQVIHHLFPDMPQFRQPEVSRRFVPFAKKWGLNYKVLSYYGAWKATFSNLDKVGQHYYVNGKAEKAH
compound,measurement,value
CC/C=C\C/C=C\C/C=C\C/C=C\CCCCC(=O)O [stearidonic acid],"whole-cell biotransformation in yeast, GC-MS of fatty acid methyl esters",Desaturase activity is represented by the conversion rate of ALA to SDA
